According to patent US10059709B2, “Compounds” (Elanco Tiergesundheit AG, priority 2014, dated 2018):

What was measured:
Format in all cases: biochemical
GST-JAK1(866-1154) = GST-JAK1(866-1154) (Homo sapiens (Human), UniProt P23458); assay: Caliper mobility shift kinase assay, JAK1; conditions: IRS-1 peptide 5 μM, ATP 40 μM, 60 minutes at 30° C.
Source text: (§1) Measurement of the Effect on the JAK Enzyme
(§2) All four kinases of the JAK/TYK-kinase family were used as purified recombinant GST-fusion proteins, containing the active kinase domains. GST-JAK1(866-1154), GST-JAK3(811-1124), and GST-TYK2(888-1187) were expressed and purified by affinity chromatography at the EPK biology unit.
(§3) The kinase assays were based on the Caliper mobility shift assay using the LabChip 3000 systems. This technology is similar to capillary electrophoresis and uses charge driven separation of substrate and product in a microfluidic chip.
(§4) All kinase reactions were performed in 384 well microtiter plates in a total reaction volume of
(§5) 18 μI. […] The reactions were started by combining 9 μI of substrate mix (consisting of peptide and ATP) with 9 μI of kinase dilution. The reactions were incubated for 60 minutes at 30° C. and stopped by adding 70 μI of stop buffer (100 mM Hepes, 5% DMSO, 0.1% Coating reagent, 10 mM EDTA, 0.015% Brij 35).
(§6) Fluorescently labeled synthetic peptides were used as substrates in all reactions. […] Specific assay conditions are described in Table 4:
(§7) The terminated reactions were transferred to the Caliper LabChip 3000 reader and the turnover of each reaction was measured by determining the substrate/product ratio.
(§8) Preparation of Compound Dilutions
(§9) Test compounds were dissolved in DMSO (10 mM) and transferred into 1.4 mL flatbottom or V-shaped Matrix tubes carrying a unique 2D matrix chip by individual compound hubs. The numbers of these chips were distinctively linked to the individual compound identification numbers. The stock solutions were stored at −20° C. if not used immediately. For the test procedure the vials were defrosted and identified by a scanner whereby a working sheet was generated that guided the subsequent working steps. Compound dilutions were made in 96 well plates. This format enabled the assay of maximally 40 individual test compounds at 8 concentrations (single points) including 4 reference compounds. The dilution protocol included the production of pre-dilution plates, master plates and assay plates:
(§10) Pre-dilution plates: 96 polypropylene well plates were used as pre-dilution plates. A total of 4 pre-dilution plates were prepared including 10 test compounds each on the plate positions A1-A10, one standard compound at A11 and one DMSO control at A12. All dilution steps were done on a HamiltonSTAR robot.
(§11) Master plates: 100 μI of individual compound dilutions including standard compound and controls of the 4 “pre-dilution plates” were transferred into a 384 “master plate” including the following concentrations 1′820, 564, 182, 54.6, 18.2, 5.46, 1.82 and 0.546 μM, respectively in 90% of DMSO.
(§12) Assay plates: Identical assay plates were then prepared by pipetting 100 nL of compound dilutions of the master plates into 384-well “assay plates”. […] The preparation of the master plates were handled by the Matrix PlateMate Plus robot and replication of assay plates by the HummingBird robot.

GST-JAK3(811-1124) = GST-JAK3(811-1124) (Homo sapiens (Human), UniProt P52333); assay: Caliper mobility shift kinase assay, JAK3; conditions: JAK3tide 2 μM, ATP 80 or 18 μM, 60 minutes at 30° C.
Source text: as §1, §2, §3, §4
18 μI. The assay plates were prepared with 0.1 μI per well of test compound in the appropriate test concentration, as described under the section “preparation of compound dilutions”. The reactions were started by combining 9 μI of substrate mix (consisting of peptide and ATP) with 9 μI of kinase dilution. The reactions were incubated for 60 minutes at 30° C. and stopped by adding 70 μI of stop buffer (100 mM Hepes, 5% DMSO, 0.1% Coating reagent, 10 mM EDTA, 0.015% Brij 35).
Fluorescently labeled synthetic peptides were used as substrates in all reactions. A peptide derived from the sequence of IRS-1 (IRS-1 peptide, FITC-Ahx-[…]-NH2) was used for JAK1 and TYK2 and a peptide named JAK3tide (FITC-[…]-NH2) for JAK3. Specific assay conditions are described in Table 4:
as §7, §8, §9, §10, §11
Assay plates: Identical assay plates were then prepared by pipetting 100 nL of compound dilutions of the master plates into 384-well “assay plates”. In the following the compounds were mixed with 9 μI of assays components plus 9 μI enzyme corresponding to a 1:181 dilution steps enabling the final concentration of 10, 3.0, 1.0, 0.3, 0.1, 0.03, 0.01 and 0.003 μM, respectively. The preparation of the master plates were handled by the Matrix PlateMate Plus robot and replication of assay plates by the HummingBird robot.

GST-TYK2(888-1187) = GST-TYK2(888-1187) (Homo sapiens (Human), UniProt P29597); assay: Caliper mobility shift kinase assay, TYK2; conditions: IRS-1 peptide 5 μM, ATP 30 μM, 60 minutes at 30° C.
Source text: as §1, §2, §3, §4, §5, §6, §7, §8, §9, §10, §11, §12

Chain of GST-JAK3(811-1124) (P52333 811-1124): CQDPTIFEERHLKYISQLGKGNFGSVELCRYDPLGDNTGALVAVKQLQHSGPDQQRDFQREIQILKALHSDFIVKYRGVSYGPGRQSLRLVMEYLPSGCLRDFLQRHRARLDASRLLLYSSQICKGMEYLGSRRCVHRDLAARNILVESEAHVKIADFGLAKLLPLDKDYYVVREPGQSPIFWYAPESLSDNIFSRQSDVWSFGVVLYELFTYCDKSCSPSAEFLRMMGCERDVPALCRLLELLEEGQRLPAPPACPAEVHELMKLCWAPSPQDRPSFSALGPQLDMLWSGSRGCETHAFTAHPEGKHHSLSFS
Chain of GST-JAK1(866-1154) (P23458 866-1154): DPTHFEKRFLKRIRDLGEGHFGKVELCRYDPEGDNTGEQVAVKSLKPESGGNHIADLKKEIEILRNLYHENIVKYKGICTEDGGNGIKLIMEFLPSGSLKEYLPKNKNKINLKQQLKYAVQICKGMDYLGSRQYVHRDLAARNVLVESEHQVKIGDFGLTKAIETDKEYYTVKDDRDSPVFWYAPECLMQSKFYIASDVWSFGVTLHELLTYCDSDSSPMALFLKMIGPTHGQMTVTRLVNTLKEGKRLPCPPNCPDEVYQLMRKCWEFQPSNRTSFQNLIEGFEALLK
Chain of GST-TYK2(888-1187) (P29597 888-1187): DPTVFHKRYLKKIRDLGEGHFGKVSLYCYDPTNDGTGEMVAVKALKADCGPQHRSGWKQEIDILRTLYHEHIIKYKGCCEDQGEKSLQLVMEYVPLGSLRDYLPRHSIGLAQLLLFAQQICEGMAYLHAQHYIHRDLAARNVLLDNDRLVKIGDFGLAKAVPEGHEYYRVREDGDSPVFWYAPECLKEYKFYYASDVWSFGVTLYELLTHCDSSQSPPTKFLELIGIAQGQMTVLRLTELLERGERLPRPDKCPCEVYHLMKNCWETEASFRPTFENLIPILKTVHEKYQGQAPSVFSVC

Row | IC50 (GST-JAK1(866-1154)) [µM] | IC50 (GST-JAK3(811-1124)) [µM] | IC50 (GST-TYK2(888-1187)) [µM] | SMILES
1 | > 10 | > 10 | > 10 | CNS(=O)(=O)C[C@H]1CC[C@H](N(C)c2ncnc3[nH]c(Cc4ccccc4)nc23)CC1 [compound 5]
2 | > 10 | > 10 | > 10 | CNS(=O)(=O)C[C@H]1CC[C@H](N(C)c2ncnc3sccc23)CC1 [compound 9]
3 | > 10 | > 10 | > 10 | CNS(=O)(=O)C[C@H]1CC[C@H](N(C)c2ccnc(N)n2)CC1 [compound 16]
4 | 0.071 | 3.6 |  | CNS(=O)(=O)C[C@H]1CC[C@H](Oc2c([N+](=O)[O-])cnc3[nH]ccc23)CC1 [compound 25, N-methyl-1-[trans-4-[(5-nitro-1H-pyrrolo[2,3-b]pyridin-4-yl)oxy]cyclohexyl]methanesulfonamide]
5 | > 10 | > 10 | > 10 | CNS(=O)(=O)C[C@H]1CC[C@H](Oc2ncnn3cccc23)CC1 [compound 6]
6 | 0.034 | 3 | 0.84 | CNS(=O)(=O)C[C@H]1CC[C@H](N(C)c2c(C#N)cnc3[nH]ccc23)CC1 [compound 26, 1-[trans-4-[(5-cyano-1H-pyrrolo[2,3-b]pyridin-4-yl)-methyl-amino]cyclohexyl]-N-methyl-methanesulfonamide]
7 | 0.582 | 1.89 | 4.59 | CNS(=O)(=O)C[C@H]1CC[C@H](N(C)c2ncnc3[nH]cnc23)CC1 [compound 2, N-methyl-1-[trans-4-[methyl(9H-purin-6-yl)amino]cyclohexyl]methanesulfonamide]
8 |  | 7.93 |  | CNS(=O)(=O)C[C@H]1CC[C@H](N(C)c2ncnc3[nH]c(C)nc23)CC1 [compound 1]
9 | > 10 | > 10 | > 10 | CNS(=O)(=O)C[C@H]1CC[C@H](Nc2nc(N)ncc2C)CC1 [compound 12]
10 | > 10 | > 10 | > 10 | CNS(=O)(=O)C[C@H]1CC[C@H](N(C)c2ncnc3[nH]ncc23)CC1 [compound 3]
11 | > 10 | > 10 | > 10 | CNS(=O)(=O)C[C@H]1CC[C@H](Oc2c(C#N)cnc3sccc23)CC1 [compound 20]

More lines, now with the values behind:

Row | SMILES | IC50 (GST-JAK1(866-1154)) [µM] | IC50 (GST-JAK3(811-1124)) [µM] | IC50 (GST-TYK2(888-1187)) [µM]
12 | CNS(=O)(=O)C[C@H]1CC[C@H](N(C)c2c(C#N)cnn3cccc23)CC1 [compound 24] | 0.93 | > 10 | 8.5
13 | CNS(=O)(=O)C[C@H]1CC[C@H](N(C)c2ncnn3cccc23)CC1 [compound 28] | 0.55 | > 10 | 3.2
14 | CNS(=O)(=O)C[C@H]1CC[C@H](Nc2c(C#N)cnn3cccc23)CC1 [compound 27] | 1.8 | > 10 | 
15 | CNS(=O)(=O)C[C@H]1CC[C@H](Nc2ncnn3cccc23)CC1 [compound 15] | > 10 | > 10 | > 10
16 | CNS(=O)(=O)C[C@H]1CC[C@H](Nc2c(C#N)cnc3sccc23)CC1 [compound 14] | > 10 | > 10 | > 10
17 | CNS(=O)(=O)C[C@H]1CC[C@H](Nc2ccnc(N)n2)CC1 [compound 11] | > 10 | > 10 | > 10
18 | CNS(=O)(=O)C[C@H]1CC[C@H](Oc2ncnc3sccc23)CC1 [compound 19] | > 10 | > 10 | > 10
19 | CNS(=O)(=O)C[C@H]1CC[C@H](N(C)c2cc(Cl)nc(N)n2)CC1 [compound 10] | > 10 | > 10 | > 10
20 | CNS(=O)(=O)C[C@H]1CC[C@H](N(C)c2c([N+](=O)[O-])cnc3[nH]ccc23)CC1 [compound 18] |  | 1.2 | 0.39
21 | CNS(=O)(=O)C[C@H]1CC[C@H](N(C)c2nc(N)ncc2-c2ccccc2)CC1 [compound 21] | > 10 | > 10 | > 10
22 | CNS(=O)(=O)C[C@H]1CC[C@H](Nc2nc(N)ncc2Br)CC1 [compound 13] |  | > 10 | 6
23 | CNS(=O)(=O)C[C@H]1CC[C@H](Nc2nc(N)ncc2-c2ccccc2)CC1 [compound 23] | > 10 | > 10 | > 10
24 | CNS(=O)(=O)C[C@H]1CC[C@H](N(C)c2nc(N)ncc2Br)CC1 [compound 7] | > 10 | > 10 | > 10
25 | CNS(=O)(=O)C[C@H]1CC[C@H](n2cnc3cnc4[nH]ccc4c32)CC1 [compound 22, 1-[trans-4-(imidazo[4,5-d]pyrrolo[2,3-b]pyridin-1(6H)-yl)cyclohexyl]-N-methylmethanesulfonamide] | 0.01 | 0.26 | 0.13
26 | CNS(=O)(=O)C[C@H]1CC[C@H](N(C)c2c(C#N)cnc3sccc23)CC1 [compound 17] | > 10 | > 10 | > 10
27 | CNS(=O)(=O)C[C@H]1CC[C@H](Nc2ncnc3sccc23)CC1 [compound 8] | > 10 | > 10 | > 10
28 | CNS(=O)(=O)C[C@H]1CC[C@H](N(C)c2ncnc3[nH]c(-c4ccccc4)nc23)CC1 [compound 4] | > 10 | > 10 | > 10
